As a reminder, the Cmax is the peak of the concentration-time curve.

Structures can show the parent of a compound that is named as a salt.

For data set [1] the following is noted: ex vivo, data not shown.
A short description of data set [2]: Plasma concentrations in mice after rectal enema dosing of TAF or CMX157. The class given is in vivo.
For data set [3] the following is noted: for number of freeze-thaw cycles for which stable: plasma, -80°C.
The conditions of data set [4]: data not shown.
Data set [5] is described as follows: Injection matrix stability. Conditions: 72 h at 4°C, compared to the previously run curve; data not shown.
The conditions of data set [6]: cited from earlier work.
The conditions of data set [7]: 72 h.
The conditions of data set [8]: human, 24 h.
The conditions of data set [9]: human, 244 days.
For data set [10] the following is noted: following a single 25 mg dose of TAF; ref 24 (Custodio and colleagues); cited from earlier work.

For `CCCCCCCCCCCCCCCCOCCCOP(=O)(O)CO[C@H](C)Cn1cnc2c(N)ncnc21` [CMX157, hexadecyloxypropyl tenofovir], in [1], the “time up to which stable in whole blood” value is on record as no more than 8 h.
Consider `CC(C)OC(=O)[C@H](C)N[P@](=O)(CO[C@H](C)Cn1cnc2c(N)ncnc21)Oc1ccccc1` [TAF, tenofovir alafenamide fumarate], for which the “plasma TAF/TFV ratio” value in [2] (colonic administration of TAF, mice) is reported as less than 1. For the same compound, the “time for conversion of TAF into TFV” value in data set [2] (mice dosed rectally with TAF) is recorded as “less than 15 minutes”. Moreover, the “plasma samples with detectable systemic TAF” value in [2] (mice, rectal TAF) turned out to be 60%. In data set [1], the “time up to which stable in whole blood” value is reported as “up to 1 h”. Moreover, in [3], the “number of freeze-thaw cycles for which stable” value is on record as “two”. In data set [4], the “stability in mouse plasma as compared to human matrices” value was “less stable”. In addition, in [5], the “injection matrix stability” value is recorded as “unstable”.
Consider `CC(C)OC(=O)OCOP(=O)(CO[C@H](C)Cn1cnc2c(N)ncnc21)OCOC(=O)OC(C)C` [TDF, tenofovir disoproxil fumarate], for which the “increase in TFV bioavailability by prodrug administration” value in data set [6] is given as 25%.
As for `C[C@H](Cn1cnc2c(N)ncnc21)OCP(=O)(O)O` [TFV, tenofovir], the “injection matrix stability %DIF” value in [7] is −8.44-5.57%. In [8], the “sample matrix stability %DIF” value is reported as -14.5-8.45%. Moreover, the “freeze-thaw stability %DIF” value in [3] (human) was -15.2-3.04%. Moreover, the “number of freeze-thaw cycles for which stable” value in [3] is “three”. Further, the “long term storage stability %DIF” value in [9] was “≤ ±10.5%”. For the same compound, in data set [10], the Cmax is given as 9.5 ng/mL.
